Assay results taken from paper PMC12123037, “Cleavage of CAD by caspase-3 determines the cancer cell fate during chemotherapy” (Nature Communications, 2025).

Molecular target: T1, CAD (GFP-CAD; assayed as GFP-CAD-D1371A) (Homo sapiens, UniProt P27708, D1371A)
T1 construct: full-length CAD subcloned into Not I/Bgl II sites of pEGFP-N1-His (GFP fusion, GFP kept); expressed in HEK-293T; RIPA lysate diluted 150x in MST buffer, not purified
Experiment: microscale thermophoresis, GFP fusion in diluted HEK-293T lysate
Type: binding
Source text: microscale thermophoresis, GFP fusion in diluted HEK-293T lysate on CAD (GFP-CAD; assayed as GFP-CAD-D1371A) | direct interaction between RMY-186 and CAD-D1371A protein in vitro, with a Kd of […]

T1 sequence (P27708 whole entry D1371A, the tested form may be a part): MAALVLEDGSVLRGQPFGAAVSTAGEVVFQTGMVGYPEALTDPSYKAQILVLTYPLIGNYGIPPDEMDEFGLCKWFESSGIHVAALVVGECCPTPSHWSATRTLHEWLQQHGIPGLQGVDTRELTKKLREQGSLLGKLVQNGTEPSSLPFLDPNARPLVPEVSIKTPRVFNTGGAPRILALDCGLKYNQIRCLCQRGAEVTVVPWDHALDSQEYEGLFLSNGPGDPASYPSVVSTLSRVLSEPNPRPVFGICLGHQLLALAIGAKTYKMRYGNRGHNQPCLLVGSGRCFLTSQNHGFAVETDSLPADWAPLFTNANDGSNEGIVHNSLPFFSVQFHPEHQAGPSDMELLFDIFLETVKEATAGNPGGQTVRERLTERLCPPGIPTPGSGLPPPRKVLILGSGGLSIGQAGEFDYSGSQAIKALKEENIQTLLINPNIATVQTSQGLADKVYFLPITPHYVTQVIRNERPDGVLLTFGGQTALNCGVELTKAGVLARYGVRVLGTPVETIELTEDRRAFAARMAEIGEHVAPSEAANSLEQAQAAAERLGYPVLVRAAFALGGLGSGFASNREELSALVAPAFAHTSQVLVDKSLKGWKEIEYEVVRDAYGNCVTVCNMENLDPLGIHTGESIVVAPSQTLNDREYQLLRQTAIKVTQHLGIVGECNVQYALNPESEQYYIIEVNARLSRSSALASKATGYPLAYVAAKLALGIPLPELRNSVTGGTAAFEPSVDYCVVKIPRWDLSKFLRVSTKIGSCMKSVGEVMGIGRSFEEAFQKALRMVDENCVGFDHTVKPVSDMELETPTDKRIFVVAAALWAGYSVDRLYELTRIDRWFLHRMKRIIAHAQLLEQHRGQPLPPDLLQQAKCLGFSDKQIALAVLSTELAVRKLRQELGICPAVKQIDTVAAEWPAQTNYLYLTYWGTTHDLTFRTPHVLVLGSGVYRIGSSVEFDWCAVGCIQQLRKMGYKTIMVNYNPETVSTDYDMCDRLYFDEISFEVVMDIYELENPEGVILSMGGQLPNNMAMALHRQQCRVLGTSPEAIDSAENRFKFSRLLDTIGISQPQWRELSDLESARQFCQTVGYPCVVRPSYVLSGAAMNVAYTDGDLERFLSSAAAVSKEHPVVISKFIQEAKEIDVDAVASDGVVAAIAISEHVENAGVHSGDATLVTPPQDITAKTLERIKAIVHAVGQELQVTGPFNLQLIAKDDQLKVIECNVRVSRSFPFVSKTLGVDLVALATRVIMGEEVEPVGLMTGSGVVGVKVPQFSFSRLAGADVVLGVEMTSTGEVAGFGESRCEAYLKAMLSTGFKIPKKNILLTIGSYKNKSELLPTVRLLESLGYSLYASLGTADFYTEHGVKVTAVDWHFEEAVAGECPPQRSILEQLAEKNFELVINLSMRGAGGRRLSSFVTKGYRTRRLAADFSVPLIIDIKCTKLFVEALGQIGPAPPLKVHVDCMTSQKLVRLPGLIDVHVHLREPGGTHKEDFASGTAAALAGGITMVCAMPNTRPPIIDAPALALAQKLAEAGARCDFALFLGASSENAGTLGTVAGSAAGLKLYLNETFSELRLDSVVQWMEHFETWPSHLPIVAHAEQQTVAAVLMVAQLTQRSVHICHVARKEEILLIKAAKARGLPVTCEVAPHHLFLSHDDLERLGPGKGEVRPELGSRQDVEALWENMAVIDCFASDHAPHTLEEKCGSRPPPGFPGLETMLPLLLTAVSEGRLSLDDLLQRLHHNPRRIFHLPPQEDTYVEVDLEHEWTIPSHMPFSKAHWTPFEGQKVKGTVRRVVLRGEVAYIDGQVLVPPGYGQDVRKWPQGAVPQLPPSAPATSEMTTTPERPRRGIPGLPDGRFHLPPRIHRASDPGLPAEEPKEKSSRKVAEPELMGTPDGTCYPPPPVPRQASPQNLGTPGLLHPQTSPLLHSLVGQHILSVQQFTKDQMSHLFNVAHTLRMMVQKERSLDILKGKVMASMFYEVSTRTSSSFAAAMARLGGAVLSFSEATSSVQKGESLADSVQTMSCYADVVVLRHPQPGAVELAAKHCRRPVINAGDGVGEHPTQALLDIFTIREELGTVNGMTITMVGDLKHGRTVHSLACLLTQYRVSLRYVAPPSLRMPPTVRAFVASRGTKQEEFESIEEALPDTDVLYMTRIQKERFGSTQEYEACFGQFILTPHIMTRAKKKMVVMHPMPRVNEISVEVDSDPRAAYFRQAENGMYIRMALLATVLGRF

Kd: 6.78 µM
SMILES: O=c1c(O)c(N2CCN(Cc3cccc(Br)c3)CC2)oc2ccccc12 [compound 9, 2-(4-(3-bromobenzyl)-piperazin-1-yl)-3-hydroxy-4H-chromen-4-one]
